According to patent publication US20230085307A1, “PYRIDAZINONE COMPOUND AND HERBICIDE” (NISSAN CHEMICAL CORPORATION, priority 2019, published 2023):

Legend:
barnyard grass [1] = assay: Test Example 3: herbicidal effect by foliage application, Wagner pot (Table 18, symbol H); format: in vivo, barnyard grass (Echinochloa crus-galli)
Method in brief: (§1)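 Plants were sown in alluvial soil held under 0.1–0.5 cm standing water and grown 14 days in a greenhouse at 25–30 °C. An emulsifiable formulation, water-diluted to the set dose, was then sprayed onto the foliage, and effects were scored three weeks later using previously defined criteria.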

Chinese sprangletop = assay: Test Example 3: herbicidal effect by foliage application, Wagner pot (Table 18, symbol D); format: in vivo, chinese sprangletop (Leptochloa chinensis)
Method in brief: as §1

rice flat sedge = assay: Test Example 3: herbicidal effect by foliage application, Wagner pot (Table 18, symbol E); format: in vivo, rice flat sedge (Cyperus iria)
Method in brief: as §1

southern crabgrass [2] = assay: Test Example 4: herbicidal effect by soil treatment (Table 19, symbol F); format: in vivo, southern crabgrass (Digitaria ciliaris); details: amount of applied herbicide 320 g/ha
Method in brief: (§2)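 Step 1: sow seeds in sterilized diluvial soil, cover ~1.5 cm. Step 2: spray diluted emulsion onto soil surface at predetermined rate. Step 3: greenhouse, 25–30° C, three weeks. Step 4: grade effect on each plant by earlier criteria.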

green foxtail [3] = assay: Test Example 4: herbicidal effect by soil treatment (Table 19, symbol G); format: in vivo, green foxtail (Setaria viridis); details: amount of applied herbicide 320 g/ha
Method in brief: as §2

barnyard grass [4] = assay: Test Example 4: herbicidal effect by soil treatment (Table 19, symbol H); format: in vivo, barnyard grass (Echinochloa crus-galli); details: amount of applied herbicide 320 g/ha
Method in brief: as §2

wild oat [5] = assay: Test Example 4: herbicidal effect by soil treatment (Table 19, symbol I); format: in vivo, wild oat (Avena fatua); details: amount of applied herbicide 320 g/ha
Method in brief: as §2

blackgrass [6] = assay: Test Example 4: herbicidal effect by soil treatment (Table 19, symbol J); format: in vivo, blackgrass (Alopecurus myosuroides); details: amount of applied herbicide 320 g/ha
Method in brief: as §2

Italian ryegrass [7] = assay: Test Example 4: herbicidal effect by soil treatment (Table 19, symbol K); format: in vivo, Italian ryegrass (Lolium multiflorum); details: amount of applied herbicide 320 g/ha
Method in brief: as §2

windgrass [8] = assay: Test Example 4: herbicidal effect by soil treatment (Table 19, symbol L); format: in vivo, windgrass (Apera spica-venti); details: amount of applied herbicide 320 g/ha
Method in brief: as §2

velvetleaf [9] = assay: Test Example 4: herbicidal effect by soil treatment (Table 19, symbol M); format: in vivo, velvetleaf (Abutilon theophrasti); details: amount of applied herbicide 320 g/ha
Method in brief: as §2

redroot pigweed [10] = assay: Test Example 4: herbicidal effect by soil treatment (Table 19, symbol N); format: in vivo, redroot pigweed (Amaranthus retroflexus); details: amount of applied herbicide 320 g/ha
Method in brief: as §2

lambsquarters [11] = assay: Test Example 4: herbicidal effect by soil treatment (Table 19, symbol O); format: in vivo, lambsquarters (Chenopodium album); details: amount of applied herbicide 320 g/ha
Method in brief: as §2

chickweed [12] = assay: Test Example 4: herbicidal effect by soil treatment (Table 19, symbol P); format: in vivo, common chickweed (Stellaria media); details: amount of applied herbicide 320 g/ha
Method in brief: as §2

false cleavers [13] = assay: Test Example 4: herbicidal effect by soil treatment (Table 19, symbol Q); format: in vivo, false cleavers (Galium spurium); details: amount of applied herbicide 320 g/ha
Method in brief: as §2

persian speedwell [14] = assay: Test Example 4: herbicidal effect by soil treatment (Table 19, symbol R); format: in vivo, Persian speedwell (Veronica persica); details: amount of applied herbicide 320 g/ha
Method in brief: as §2

southern crabgrass [15] = assay: Test Example 5: herbicidal effect by foliage application, plastic box (Table 20, symbol F); format: in vivo, southern crabgrass (Digitaria ciliaris); details: foliage application
Method in brief: (§3)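 Foliar spray test: emulsion formulation diluted in water to a set application rate, sprayed onto 14-day-old plants raised in diluvial soil at 25° C to 30° C under glass. Both herbicidal effect and crop effect rated visually three weeks later.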

green foxtail [16] = assay: Test Example 5: herbicidal effect by foliage application, plastic box (Table 20, symbol G); format: in vivo, green foxtail (Setaria viridis); details: foliage application
Method in brief: as §3

barnyard grass [17] = assay: Test Example 5: herbicidal effect by foliage application, plastic box (Table 20, symbol H); format: in vivo, barnyard grass (Echinochloa crus-galli); details: foliage application
Method in brief: as §3

wild oat [18] = assay: Test Example 5: herbicidal effect by foliage application, plastic box (Table 20, symbol I); format: in vivo, wild oat (Avena fatua); details: foliage application
Method in brief: as §3

blackgrass [19] = assay: Test Example 5: herbicidal effect by foliage application, plastic box (Table 20, symbol J); format: in vivo, blackgrass (Alopecurus myosuroides); details: foliage application
Method in brief: as §3

Italian ryegrass [20] = assay: Test Example 5: herbicidal effect by foliage application, plastic box (Table 20, symbol K); format: in vivo, Italian ryegrass (Lolium multiflorum); details: foliage application
Method in brief: as §3

windgrass [21] = assay: Test Example 5: herbicidal effect by foliage application, plastic box (Table 20, symbol L); format: in vivo, windgrass (Apera spica-venti); details: foliage application
Method in brief: as §3

velvetleaf [22] = assay: Test Example 5: herbicidal effect by foliage application, plastic box (Table 20, symbol M); format: in vivo, velvetleaf (Abutilon theophrasti); details: foliage application
Method in brief: as §3

redroot pigweed [23] = assay: Test Example 5: herbicidal effect by foliage application, plastic box (Table 20, symbol N); format: in vivo, redroot pigweed (Amaranthus retroflexus); details: foliage application
Method in brief: as §3

lambsquarters [24] = assay: Test Example 5: herbicidal effect by foliage application, plastic box (Table 20, symbol O); format: in vivo, lambsquarters (Chenopodium album); details: foliage application
Method in brief: as §3

chickweed [25] = assay: Test Example 5: herbicidal effect by foliage application, plastic box (Table 20, symbol P); format: in vivo, common chickweed (Stellaria media); details: foliage application
Method in brief: as §3

false cleavers [26] = assay: Test Example 5: herbicidal effect by foliage application, plastic box (Table 20, symbol Q); format: in vivo, false cleavers (Galium spurium); details: foliage application
Method in brief: as §3

persian speedwell [27] = assay: Test Example 5: herbicidal effect by foliage application, plastic box (Table 20, symbol R); format: in vivo, Persian speedwell (Veronica persica); details: foliage application
Method in brief: as §3

[28] = AAH 320 g/ha, three weeks after application
[29] = amount of applied herbicide 320 g/ha
[30] = 320 g/ha, evaluated three weeks after application

CCCC(=O)Oc1c(C)nn(C)c(=O)c1-c1c(-c2ccc3c(c2)OC(F)(F)O3)sc2ccccc12 [1-100]
herbicidal effect on H (barnyard grass), rating 0-5 (barnyard grass [1]; 320 g/ha): 0 (Herbicidal rate of 5% or less (almost no effect))
herbicidal effect on D (Chinese sprangletop), rating 0-5 (Chinese sprangletop; 320 g/ha): 0 (Herbicidal rate of 5% or less (almost no effect))
herbicidal effect on E (rice flat sedge), rating 0-5 (rice flat sedge; 320 g/ha): 4 (Herbicidal rate of 70% or more and less than 90%)
herbicidal effect rating, F: southern crabgrass (southern crabgrass [2]): 0 (Herbicidal rate of 5% or less (almost no effect))
herbicidal effect rating, G: green foxtail (green foxtail [3]): 0 (Herbicidal rate of 5% or less (almost no effect))
herbicidal effect rating, H: barnyard grass (barnyard grass [4]): 0 (Herbicidal rate of 5% or less (almost no effect))
herbicidal effect rating, I: wild oat (wild oat [5]): 0 (Herbicidal rate of 5% or less (almost no effect))
herbicidal effect rating, J: blackgrass (blackgrass [6]): 0 (Herbicidal rate of 5% or less (almost no effect))
herbicidal effect rating, K: Italian ryegrass (Italian ryegrass [7]): 3 (Herbicidal rate of 40% or more and less than 70%)
herbicidal effect rating, L: windgrass (windgrass [8]): 0 (Herbicidal rate of 5% or less (almost no effect))
herbicidal effect rating, M: velvetleaf (velvetleaf [9]): 0 (Herbicidal rate of 5% or less (almost no effect))
herbicidal effect rating, N: redroot pigweed (redroot pigweed [10]): 0 (Herbicidal rate of 5% or less (almost no effect))
herbicidal effect rating, O: lambsquarters (lambsquarters [11]): 0 (Herbicidal rate of 5% or less (almost no effect))
herbicidal effect rating, P: chickweed (chickweed [12]): 2 (Herbicidal rate of 20% or more and less than 40%)
herbicidal effect rating, Q: false cleavers (false cleavers [13]): 2 (Herbicidal rate of 20% or more and less than 40%)
herbicidal effect rating, R: persian speedwell (persian speedwell [14]): 5 (Herbicidal rate of 90% or more (almost completely withered))
F: southern crabgrass, herbicidal effect (southern crabgrass [15]; [28]): 0 (Herbicidal rate of 5% or less (almost no effect))
G: green foxtail, herbicidal effect (green foxtail [16]; [28]): 0 (Herbicidal rate of 5% or less (almost no effect))
H: barnyard grass, herbicidal effect (barnyard grass [17]; [28]): 0 (Herbicidal rate of 5% or less (almost no effect))
I: wild oat, herbicidal effect (wild oat [18]; [28]): 1 (Herbicidal rate of 5% or more and less than 20%)
J: blackgrass, herbicidal effect (blackgrass [19]; [28]): 0 (Herbicidal rate of 5% or less (almost no effect))
K: Italian ryegrass, herbicidal effect (Italian ryegrass [20]; [28]): 1 (Herbicidal rate of 5% or more and less than 20%)
L: windgrass, herbicidal effect (windgrass [21]; [28]): 0 (Herbicidal rate of 5% or less (almost no effect))
M: velvetleaf, herbicidal effect (velvetleaf [22]; [28]): 3 (Herbicidal rate of 40% or more and less than 70%)
N: redroot pigweed, herbicidal effect (redroot pigweed [23]; [28]): 0 (Herbicidal rate of 5% or less (almost no effect))
O: lambsquarters, herbicidal effect (lambsquarters [24]; [28]): 0 (Herbicidal rate of 5% or less (almost no effect))
P: chickweed, herbicidal effect (chickweed [25]; [28]): 5 (Herbicidal rate of 90% or more (almost completely withered))
Q: false cleavers, herbicidal effect (false cleavers [26]; [28]): 3 (Herbicidal rate of 40% or more and less than 70%)
R: persian speedwell, herbicidal effect (persian speedwell [27]; [28]): 5 (Herbicidal rate of 90% or more (almost completely withered))

CCCCOc1ccc(-c2sc3ccc(Cl)cc3c2-c2c(OC(=O)CCC)c(C)nn(C)c2=O)cc1 [2-110]
herbicidal effect on H: barnyard grass (barnyard grass [1]; [29]): 4 (Herbicidal rate of 70% or more and less than 90%)
herbicidal effect on D: Chinese sprangletop (Chinese sprangletop; [29]): 4 (Herbicidal rate of 70% or more and less than 90%)
herbicidal effect on E: rice flat sedge (rice flat sedge; [29]): 4 (Herbicidal rate of 70% or more and less than 90%)
F: southern crabgrass, herbicidal effect rating (southern crabgrass [2]): 0 (Herbicidal rate of 5% or less (almost no effect))
G: green foxtail, herbicidal effect rating (green foxtail [3]): 0 (Herbicidal rate of 5% or less (almost no effect))
H: barnyard grass, herbicidal effect rating (barnyard grass [4]): 0 (Herbicidal rate of 5% or less (almost no effect))
I: wild oat, herbicidal effect rating (wild oat [5]): 0 (Herbicidal rate of 5% or less (almost no effect))
J: blackgrass, herbicidal effect rating (blackgrass [6]): 0 (Herbicidal rate of 5% or less (almost no effect))
K: Italian ryegrass, herbicidal effect rating (Italian ryegrass [7]): 0 (Herbicidal rate of 5% or less (almost no effect))
L: windgrass, herbicidal effect rating (windgrass [8]): 0 (Herbicidal rate of 5% or less (almost no effect))
M: velvetleaf, herbicidal effect rating (velvetleaf [9]): 0 (Herbicidal rate of 5% or less (almost no effect))
N: redroot pigweed, herbicidal effect rating (redroot pigweed [10]): 0 (Herbicidal rate of 5% or less (almost no effect))
O: lambsquarters, herbicidal effect rating (lambsquarters [11]): 0 (Herbicidal rate of 5% or less (almost no effect))
P: chickweed, herbicidal effect rating (chickweed [12]): 0 (Herbicidal rate of 5% or less (almost no effect))
Q: false cleavers, herbicidal effect rating (false cleavers [13]): 0 (Herbicidal rate of 5% or less (almost no effect))
R: persian speedwell, herbicidal effect rating (persian speedwell [14]): 2 (Herbicidal rate of 20% or more and less than 40%)
herbicidal effect on F: southern crabgrass (southern crabgrass [15]; [30]): 0 (Herbicidal rate of 5% or less (almost no effect))
herbicidal effect on G: green foxtail (green foxtail [16]; [30]): 0 (Herbicidal rate of 5% or less (almost no effect))
herbicidal effect on H: barnyard grass (barnyard grass [17]; [30]): 0 (Herbicidal rate of 5% or less (almost no effect))
herbicidal effect on I: wild oat (wild oat [18]; [30]): 0 (Herbicidal rate of 5% or less (almost no effect))
herbicidal effect on J: blackgrass (blackgrass [19]; [30]): 0 (Herbicidal rate of 5% or less (almost no effect))
herbicidal effect on K: Italian ryegrass (Italian ryegrass [20]; [30]): 0 (Herbicidal rate of 5% or less (almost no effect))
herbicidal effect on L: windgrass (windgrass [21]; [30]): 0 (Herbicidal rate of 5% or less (almost no effect))
herbicidal effect on M: velvetleaf (velvetleaf [22]; [30]): 3 (Herbicidal rate of 40% or more and less than 70%)
herbicidal effect on N: redroot pigweed (redroot pigweed [23]; [30]): 4 (Herbicidal rate of 70% or more and less than 90%)
herbicidal effect on O: lambsquarters (lambsquarters [24]; [30]): 3 (Herbicidal rate of 40% or more and less than 70%)
herbicidal effect on P: chickweed (chickweed [25]; [30]): 2 (Herbicidal rate of 20% or more and less than 40%)
herbicidal effect on Q: false cleavers (false cleavers [26]; [30]): 3 (Herbicidal rate of 40% or more and less than 70%)
herbicidal effect on R: persian speedwell (persian speedwell [27]; [30]): 5 (Herbicidal rate of 90% or more (almost completely withered))
